Experimental data published in patent US20200216441A1, “PESTICIDALLY ACTIVE HETEROCYCLIC DERIVATIVES WITH SULFUR CONTAINING SUBSTITUENTS” (SYNGENTA PARTICIPATIONS AG, priority 2017, published 2020).

What was measured:
[1] = test system: Bemisia tabaci (Cotton White Fly); conditions: in Gossypium hirsutum, foliar, 144 h
[2] = test system: Plutella xylostella (Diamond Back Moth); experiment: whole plant or invertebrate; format: in vivo; conditions: 120 h, application rate of 200 ppm, L2 larvae on treated artificial diet, 5 days after infestation, read-out: effect in at least one of the two categories (mortality or growth inhibition)
[3] = test system: Euschistus heros (Neotropical Brown Stink Bug); experiment: whole plant or invertebrate; format: in vivo; conditions: 120 h, application rate of 200 ppm, N2 nymphs on sprayed soybean leaves, 5 days after infestation, read-out: effect in at least one of the two categories (mortality or growth inhibition)
[4] = test system: Diabrotica Balteata (Corn Root Worm); experiment: Diabrotica balteata (Corn Root Worm); conditions: in Zea mays, 96 h, read-out: effect in at least one of the two categories (mortality or growth inhibition)
[5] = test system: Myzus persicae (Green Peach Aphid); experiment: whole plant or invertebrate; conditions: foliar, 144 h
[6] = test system: Myzus persicae (Green Peach Aphid); experiment: whole plant or invertebrate; format: in vivo; conditions: 144 h, test rate of 24 ppm, systemic, roots of infested pea seedlings in test solution, 6 days
[7] = test system: Spodoptera littoralis (Egyptian Cotton Leaf Worm); experiment: whole plant or invertebrate; conditions: in Gossypium barbadense, foliar, 72 h, read-out: control (mortality, anti-feeding effect, growth inhibition)

CCSc1cc(OC(C)(C)C)cnc1-c1nc2cc(C(F)(F)F)ncc2n1C [Compound P3, 2-(5-tert-butoxy-3-ethylsulfanyl-2-pyridyl)-3-methyl-6-(trifluoromethyl)imidazo[4,5-c]pyridine]
≥ 80%: mortality at 200 ppm [1] | percent effect (mortality or growth inhibition) at 200 ppm [2] | percent effect (mortality or growth inhibition) at 200 ppm [3] | mortality at 200 ppm [4] | mortality at 200 ppm [5]

CCS(=O)(=O)c1cc(OC(C)(C)CSC)cnc1-c1nc2cc(C(F)(F)F)ncc2n1C [Compound P50, 2-[5-(1,1-dimethyl-2-methylsulfanyl-ethoxy)-3-ethylsulfonyl-2-pyridyl]-3-methyl-6-(trifluoromethyl)imidazo[4,5-c]pyridine]
≥ 80%: mortality at 200 ppm [1] | percent effect (mortality or growth inhibition) at 200 ppm [2] | mortality at 24 ppm [6] | percent effect (mortality or growth inhibition) at 200 ppm [3] | mortality at 200 ppm [4] | mortality at 200 ppm [5]

CCS(=O)(=O)c1cc(OCCCSC)cnc1-c1nc2cc(C(F)(F)F)ncc2n1C [Compound P56, 2-[3-ethylsulfonyl-5-(3-methylsulfanylpropoxy)-2-pyridyl]-3-methyl-6-(trifluoromethyl)imidazo[4,5-c]pyridine]
≥ 80%: mortality at 200 ppm [1] | mortality at 24 ppm [6] | percent effect (mortality or growth inhibition) at 200 ppm [3] | mortality at 200 ppm [4] | mortality at 200 ppm [5]

CCS(=O)(=O)c1cc(OCOC)cnc1-c1nc2cc(C(F)(F)F)ncc2n1C [Compound P68, 2-[3-ethylsulfonyl-5-(methoxymethoxy)-2-pyridyl]-3-methyl-6-(trifluoromethyl)imidazo[4,5-c]pyridine]
≥ 80%: mortality at 200 ppm [7] | percent effect (mortality or growth inhibition) at 200 ppm [2] | mortality at 24 ppm [6] | percent effect (mortality or growth inhibition) at 200 ppm [3] | mortality at 200 ppm [4] | mortality at 200 ppm [5]

CCS(=O)(=O)c1cc(OCC(F)F)ccc1-c1nc2cc(C(F)(F)F)ncc2n1C [Compound P107, 2-[4-(2,2-difluoroethoxy)-2-ethylsulfonyl-phenyl]-3-methyl-6-(trifluoromethyl)imidazo[4,5-c]pyridine]
≥ 80%: mortality at 200 ppm [7] | percent effect (mortality or growth inhibition) at 200 ppm [2] | mortality at 24 ppm [6] | percent effect (mortality or growth inhibition) at 200 ppm [3] | mortality at 200 ppm [4] | mortality at 200 ppm [5]

CCS(=O)(=O)c1cc(OCCF)cnc1-c1nc2cc(C(F)(F)F)ncc2n1C [Compound P31, 2-[3-ethylsulfonyl-5-(2-fluoroethoxy)-2-pyridyl]-3-methyl-6-(trifluoromethyl)imidazo[4,5-c]pyridine]
≥ 80%: mortality at 200 ppm [7] | percent effect (mortality or growth inhibition) at 200 ppm [2] | mortality at 24 ppm [6] | percent effect (mortality or growth inhibition) at 200 ppm [3] | mortality at 200 ppm [4] | mortality at 200 ppm [5]

CCS(=O)(=O)c1cc(OCCSC)cnc1-c1nc2cc(C(F)(F)F)ncc2n1C [Compound P11, 2-[3-ethylsulfonyl-5-(2-methylsulfanylethoxy)-2-pyridyl]-3-methyl-6-(trifluoromethyl)imidazo[4,5-c]pyridine]
≥ 80%: mortality at 200 ppm [7] | mortality at 200 ppm [1] | mortality at 24 ppm [6] | percent effect (mortality or growth inhibition) at 200 ppm [3] | mortality at 200 ppm [5]

CCS(=O)(=O)c1cc(OC)cnc1-c1nc2cc(C(F)(F)F)ncc2n1C [Compound P13, 2-(3-ethylsulfonyl-5-methoxy-2-pyridyl)-3-methyl-6-(trifluoromethyl)imidazo[4,5-c]pyridine]
≥ 80%: mortality at 200 ppm [7] | percent effect (mortality or growth inhibition) at 200 ppm [2] | mortality at 24 ppm [6] | mortality at 200 ppm [4] | mortality at 200 ppm [5]

CCS(=O)(=O)c1cc(O[C@H]2C[C@@H](C#N)C2)cnc1-c1nc2cc(C(F)(F)F)ncc2n1C [Compound P46, 3-[[5-ethylsulfonyl-6-[3-methyl-6-(trifluoromethyl)imidazo[4,5-c]pyridin-2-yl]-3-pyridyl]oxy]cyclobutanecarbonitrile]
≥ 80%: mortality at 200 ppm [1] | percent effect (mortality or growth inhibition) at 200 ppm [2] | mortality at 24 ppm [6] | percent effect (mortality or growth inhibition) at 200 ppm [3] | mortality at 200 ppm [4] | mortality at 200 ppm [5]

CCS(=O)(=O)c1cc(OC(C)(C)C(N)=O)cnc1-c1nc2cc(C(F)(F)F)ncc2n1C [Compound P89, 2-[[5-ethylsulfonyl-6-[3-methyl-6-(trifluoromethyl)imidazo[4,5-c]pyridin-2-yl]-3-pyridyl]oxy]-2-methyl-propanamide]
≥ 80%: mortality at 200 ppm [1] | percent effect (mortality or growth inhibition) at 200 ppm [2] | mortality at 24 ppm [6] | percent effect (mortality or growth inhibition) at 200 ppm [3] | mortality at 200 ppm [4] | mortality at 200 ppm [5]

CCS(=O)(=O)c1cc(OCCCS(C)(=O)=O)cnc1-c1nc2cc(C(F)(F)F)ncc2n1C [Compound P52, 2-[3-ethylsulfonyl-5-(3-methylsulfonylpropoxy)-2-pyridyl]-3-methyl-6-(trifluoromethyl)imidazo[4,5-c]pyridine]
≥ 80%: mortality at 200 ppm [1] | mortality at 24 ppm [6] | percent effect (mortality or growth inhibition) at 200 ppm [3] | mortality at 200 ppm [5]

CCS(=O)(=O)c1cc(OC(C)C)cnc1-c1nc2cc(SC(F)F)ncc2n1C [Compound P86, 6-(difluoromethylsulfanyl)-2-(3-ethylsulfonyl-5-isopropoxy-2-pyridyl)-3-methyl-imidazo[4,5-c]pyridine]
≥ 80%: mortality at 200 ppm [7] | percent effect (mortality or growth inhibition) at 200 ppm [2] | mortality at 24 ppm [6] | percent effect (mortality or growth inhibition) at 200 ppm [3] | mortality at 200 ppm [4] | mortality at 200 ppm [5]

CCS(=O)(=O)c1cc(OC[Si](C)(C)C)cnc1-c1nc2cc(C(F)(F)F)ncc2n1C [Compound P61, [5-ethylsulfonyl-6-[3-methyl-6-(trifluoromethyl)imidazo[4,5-c]pyridin-2-yl]-3-pyridyl]oxymethyl-trimethyl-silane]
≥ 80%: mortality at 200 ppm [7] | mortality at 200 ppm [1] | mortality at 200 ppm [4] | mortality at 200 ppm [5]

CCS(=O)(=O)c1cc(OCC2CC2(F)F)cnc1-c1nc2cc(C(F)(F)F)ncc2n1C (centres unmarked) [Compound P67, 2-[5-[(2,2-difluorocyclopropyl)methoxy]-3-ethylsulfonyl-2-pyridyl]-3-methyl-6-(trifluoromethyl)imidazo[4,5-c]pyridine]
≥ 80%: mortality at 200 ppm [7] | mortality at 200 ppm [1] | percent effect (mortality or growth inhibition) at 200 ppm [2] | percent effect (mortality or growth inhibition) at 200 ppm [3] | mortality at 200 ppm [4] | mortality at 200 ppm [5]

CCS(=O)(=O)c1cc(OCSC)ccc1-c1nc2cc(C(F)(F)F)ncc2n1C [Compound P106, 2-[2-ethylsulfonyl-4-(methylsulfanylmethoxy)phenyl]-3-methyl-6-(trifluoromethyl)imidazo[4,5-c]pyridine]
≥ 80%: mortality at 200 ppm [1] | mortality at 24 ppm [6] | percent effect (mortality or growth inhibition) at 200 ppm [3] | mortality at 200 ppm [4] | mortality at 200 ppm [5]

CCS(=O)(=O)c1cc(OCS(C)(=O)=O)cnc1-c1nc2cc(C(F)(F)F)ncc2n1C [Compound P9, 2-[3-ethylsulfonyl-5-(methylsulfonylmethoxy)-2-pyridyl]-3-methyl-6-(trifluoromethyl)imidazo[4,5-c]pyridine]
≥ 80%: mortality at 200 ppm [1] | mortality at 24 ppm [6] | percent effect (mortality or growth inhibition) at 200 ppm [3] | mortality at 200 ppm [4] | mortality at 200 ppm [5]

CCS(=O)(=O)c1cc(OCC(C)(C)C)cnc1-c1nc2cc(C(F)(F)F)ncc2n1C [Compound P26, 2-[5-(2,2-dimethylpropoxy)-3-ethylsulfonyl-2-pyridyl]-3-methyl-6-(trifluoromethyl)imidazo[4,5-c]pyridine]
≥ 80%: mortality at 200 ppm [7] | mortality at 200 ppm [1] | percent effect (mortality or growth inhibition) at 200 ppm [2] | mortality at 200 ppm [4] | mortality at 200 ppm [5]

CCS(=O)(=O)c1cc(OCS(C)(=O)=O)ccc1-c1nc2cc(C(F)(F)F)ncc2n1C [Compound P105, 2-[2-ethylsulfonyl-4-(methylsulfonylmethoxy)phenyl]-3-methyl-6-(trifluoromethyl)imidazo[4,5-c]pyridine]
≥ 80%: mortality at 200 ppm [1] | mortality at 24 ppm [6] | percent effect (mortality or growth inhibition) at 200 ppm [3] | mortality at 200 ppm [4] | mortality at 200 ppm [5]

CCC(C#N)(CC)Oc1cnc(-c2nc3cc(C(F)(F)F)ncc3n2C)c(S(=O)(=O)CC)c1 [Compound P44, 2-ethyl-2-[[5-ethylsulfonyl-6-[3-methyl-6-(trifluoromethyl)imidazo[4,5-c]pyridin-2-yl]-3-pyridyl]oxy]butanenitrile]
≥ 80%: mortality at 200 ppm [1] | percent effect (mortality or growth inhibition) at 200 ppm [3]

CCS(=O)(=O)c1cc(OC(C)C#N)cnc1-c1nc2cc(C(F)(F)F)ncc2n1C (centres unmarked) [Compound P22, 2-[[5-ethylsulfonyl-6-[3-methyl-6-(trifluoromethyl)imidazo[4,5-c]pyridin-2-yl]-3-pyridyl]oxy]propanenitrile]
≥ 80%: mortality at 200 ppm [7] | percent effect (mortality or growth inhibition) at 200 ppm [2] | mortality at 24 ppm [6] | percent effect (mortality or growth inhibition) at 200 ppm [3] | mortality at 200 ppm [4] | mortality at 200 ppm [5]
